Results reported in ChEMBL document CHEMBL5727989, “Compounds useful as inhibitors of ATR kinase” (2020).

target: Serine/threonine-protein kinase ATR (Homo sapiens, UniProt Q13535); experiment: Inhibition Assay: Assays were carried out at 25° C. in the presence of 5 nM full-length ATR. An assay stock buffer solution was prepared containing all of the reagents listed above, with the exception of ATP and the test compound of interest. 13.5 μL of the stock solution was placed in a 96 well plate followed by addition of 2 μL of DMSO stock containing serial dilutions of the test compound (typically starting from a final concentration of 15 μM with 3-fold serial dilutions) in duplicate (final DMSO concentration 7%). The plate was pre-incubated for 10 minutes at 25° C. and the reaction initiated by addition of 15 μL [γ-33P]ATP (final concentration 10 μM). The reaction was stopped after 24 hours by the addition of 30 μL 0.1M phosphoric acid containing 2 mM ATP. A multiscreen phosphocellulose filter 96-well plate (Millipore, Cat no. MAPHN0B50) was pretreated with 100 μL 0.2M phosphoric acid prior to the addition of 45 μL of the stopped assay mixture. The plate was washed with 5×200 μL 0.2M phosphoric acid. After drying, 100 μL Optiphase SuperMix liquid scintillation cocktail (Perkin Elmer) was added to the well prior to scintillation counting (1450 Microbeta Liquid Scintillation Counter, Wallac).
Sequence (Q13535 whole entry): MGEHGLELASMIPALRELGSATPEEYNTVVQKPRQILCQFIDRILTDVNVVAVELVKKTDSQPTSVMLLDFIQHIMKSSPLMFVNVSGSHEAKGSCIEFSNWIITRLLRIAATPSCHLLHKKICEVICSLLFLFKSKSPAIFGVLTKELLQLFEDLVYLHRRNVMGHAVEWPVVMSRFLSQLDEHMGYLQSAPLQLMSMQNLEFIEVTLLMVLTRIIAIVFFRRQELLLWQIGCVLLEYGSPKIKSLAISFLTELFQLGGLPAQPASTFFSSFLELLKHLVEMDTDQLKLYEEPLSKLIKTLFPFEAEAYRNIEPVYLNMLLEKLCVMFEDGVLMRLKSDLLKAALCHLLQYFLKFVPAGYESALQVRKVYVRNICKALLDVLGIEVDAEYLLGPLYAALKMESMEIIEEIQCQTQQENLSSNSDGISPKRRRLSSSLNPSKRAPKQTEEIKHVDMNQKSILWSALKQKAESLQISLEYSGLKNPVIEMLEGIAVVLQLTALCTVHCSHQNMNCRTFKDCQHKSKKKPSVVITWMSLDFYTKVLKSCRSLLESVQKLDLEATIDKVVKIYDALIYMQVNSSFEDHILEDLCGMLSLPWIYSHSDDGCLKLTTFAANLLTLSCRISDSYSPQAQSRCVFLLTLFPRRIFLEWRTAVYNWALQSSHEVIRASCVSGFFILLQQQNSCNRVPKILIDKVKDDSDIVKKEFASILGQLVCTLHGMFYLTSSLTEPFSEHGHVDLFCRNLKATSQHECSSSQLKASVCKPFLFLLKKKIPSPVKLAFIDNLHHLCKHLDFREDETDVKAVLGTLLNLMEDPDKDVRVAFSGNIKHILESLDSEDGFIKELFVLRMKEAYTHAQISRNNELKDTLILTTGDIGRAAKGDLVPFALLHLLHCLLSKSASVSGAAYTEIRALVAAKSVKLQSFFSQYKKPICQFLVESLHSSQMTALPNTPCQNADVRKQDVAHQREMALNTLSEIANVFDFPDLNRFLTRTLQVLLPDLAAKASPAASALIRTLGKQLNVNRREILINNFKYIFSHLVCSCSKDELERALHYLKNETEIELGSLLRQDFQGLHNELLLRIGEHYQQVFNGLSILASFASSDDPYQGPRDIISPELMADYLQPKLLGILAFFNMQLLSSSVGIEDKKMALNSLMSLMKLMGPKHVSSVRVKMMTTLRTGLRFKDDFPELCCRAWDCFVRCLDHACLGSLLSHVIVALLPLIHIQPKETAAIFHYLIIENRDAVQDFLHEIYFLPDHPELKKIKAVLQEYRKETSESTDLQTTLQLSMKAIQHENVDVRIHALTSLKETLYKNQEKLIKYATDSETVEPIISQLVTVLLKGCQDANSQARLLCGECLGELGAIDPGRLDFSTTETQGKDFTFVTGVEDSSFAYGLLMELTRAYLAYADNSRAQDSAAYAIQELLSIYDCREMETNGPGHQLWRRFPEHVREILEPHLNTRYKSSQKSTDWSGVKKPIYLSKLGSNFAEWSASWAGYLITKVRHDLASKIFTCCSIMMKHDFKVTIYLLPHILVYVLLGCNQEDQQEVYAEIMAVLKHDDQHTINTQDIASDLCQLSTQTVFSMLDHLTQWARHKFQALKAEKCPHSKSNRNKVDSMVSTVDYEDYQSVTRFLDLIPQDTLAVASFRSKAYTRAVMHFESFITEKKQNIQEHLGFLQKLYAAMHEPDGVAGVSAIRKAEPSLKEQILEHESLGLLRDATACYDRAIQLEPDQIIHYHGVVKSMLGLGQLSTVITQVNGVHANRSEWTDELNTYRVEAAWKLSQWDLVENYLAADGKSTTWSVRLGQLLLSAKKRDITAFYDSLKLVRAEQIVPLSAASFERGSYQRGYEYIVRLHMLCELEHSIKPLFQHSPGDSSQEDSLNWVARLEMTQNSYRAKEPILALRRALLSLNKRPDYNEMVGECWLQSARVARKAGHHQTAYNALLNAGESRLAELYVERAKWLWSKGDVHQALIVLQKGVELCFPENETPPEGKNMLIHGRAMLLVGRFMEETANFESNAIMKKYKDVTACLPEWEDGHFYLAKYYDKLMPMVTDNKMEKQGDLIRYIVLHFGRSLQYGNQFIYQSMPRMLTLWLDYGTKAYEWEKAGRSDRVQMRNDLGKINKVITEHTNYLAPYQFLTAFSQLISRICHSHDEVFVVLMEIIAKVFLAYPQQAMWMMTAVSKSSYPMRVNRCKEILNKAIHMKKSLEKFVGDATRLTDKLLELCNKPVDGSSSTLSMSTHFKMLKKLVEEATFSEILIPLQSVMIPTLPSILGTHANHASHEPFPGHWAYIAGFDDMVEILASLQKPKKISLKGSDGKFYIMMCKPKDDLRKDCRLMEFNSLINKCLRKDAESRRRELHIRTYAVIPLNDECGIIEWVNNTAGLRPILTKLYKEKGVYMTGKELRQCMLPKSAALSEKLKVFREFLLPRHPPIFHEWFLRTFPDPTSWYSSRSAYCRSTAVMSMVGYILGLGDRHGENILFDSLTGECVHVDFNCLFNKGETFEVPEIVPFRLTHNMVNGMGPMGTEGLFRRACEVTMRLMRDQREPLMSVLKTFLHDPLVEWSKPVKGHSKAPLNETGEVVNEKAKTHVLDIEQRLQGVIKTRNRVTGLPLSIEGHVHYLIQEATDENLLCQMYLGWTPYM

Ki	Compound
in the range around 505 nM	Nc1nn2cc(F)cnc2c1C(=O)Nc1cnccc1N1CCOCC1
in the range around 505 nM	Nc1nn2cc(F)cnc2c1C(=O)Nc1cnccc1N1CCCCC1
in the range around 505 nM	COC1CCN(c2ccncc2NC(=O)c2c(N)nn3cc(F)cnc23)CC1

Second part, the molecule before the results:

Compound	Ki
CN(C)CCNC(=O)C1CCN(c2c(F)cncc2NC(=O)c2c(N)nn3cc(F)cnc23)CC1	in the range around 505 nM
Cc1nn(C)cc1-c1ccncc1NC(=O)c1c(N)nn2cc(F)cnc12	in the range around 505 nM
CNC(=O)C1CCN(c2c(F)cncc2NC(=O)c2c(N)nn3cc(F)cnc23)CC1	in the range around 505 nM
